Structures can show the parent of a compound that is named as a salt. Where two headings read alike, the source gives them in different places. Marks after values point to notes of the source that are not given here.
Columns and labels:
[1] = cited from earlier work
[2] = cited from earlier work; remark: listed apart in the source
[3] = Pharmacoscintigraphy regional absorption biostudy with Enterion site-specific delivery capsule, topiramate plasma concentrations; format: in vivo, human; conditions: for Relative Bioavailability (%) Based on AUCinf: 200 mg topiramate API, Enterion capsule, healthy volunteers; for Relative Bioavailability (%) Based on AUCinf / Relative Bioavailability (%) Based on AUClast: vs Trt A; for Lambda / tmax / Relative Bioavailability (%) Based on AUClast / AUCinf / Cmax / half-life / AUC(0-inf) / AUC(0-t): 200 mg; for half-life: read-out: t½ (converted)
Protocol: A rational approach to obtain detailed information about how well topiramate is absorbed from the key residence areas of the gastrointestinal tract was conducted using the Enterion® site-specific delivery capsule, which is the subject of U.S. Pat. No. 6,632,216 which is incorporated herein by reference. The Enterion® site-specific delivery capsule is an easy to use non-invasive methodology for assessing regional drug absorption from the gastrointestinal tract. The capsule is 35mm in length and 10-12 mm in diameter and is capable of delivering solutions, suspensions or powders to specific sites. […] The capsules contain a drug chamber with a wide port, and therefore loading of all types of drug formulations into the capsule is relatively straightforward. Capsule activation is confirmed by means of a signal, which is emitted from the capsule when activation occurs and is relayed back to the activation unit.
A pharmacoscintigraphy study of topiramate was conducted at Pharmaceutical Profiles, Nottingham, UK utilizing their Enterion® site-specific delivery capsule technology. This study was designed to obtain detailed information about how well topiramate is absorbed from the key residence areas of the gastrointestinal tract. The examples below are a result of a biostudy that was a randomized, 4-treatment, 4-period study, conducted in 12 healthy volunteers. The test treatments administered using an Enterion® capsule and were as follows: Trt B represents 200 mg topiramate API delivered to the proximal small bowel (PSB), Trt C represents 200 mg topiramate API delivered to the distal small bowel (DSB), Trt D represents 200 mg topiramate API delivered to the colon. The reference treatment administered was Trt A which represents 200 mg topiramate as the commercial immediate release reference formulation, Topamax™. Topiramate plasma concentrations were measured in this study.
Analysis of plasma samples for topiramate was carried out in accordance with Bioanalytical Services Test Method number TM154. The method involves solid phase extraction of topiramate using Oasis HLB extraction cartridges. Topiramate is analysed using LC-MS/MS.
The standard curves for the analytical runs in the study covered the concentration range of 10-1000 ng/mL with a limit of quantitation of 10 ng/mL. All samples were diluted 1:10 prior to analysis.
The following parameters were derived from the plasma concentration data: individual and mean blood drug concentration levels, individual and mean peak levels, Cmax; individual and mean AUClast and AUCinf; individual and mean time to peak concentration, tmax, relative bioavailability of test compared to alternative formulation, Frel (%).

[4] = Trt B, proximal small bowel (PSB)
[5] = Trt B, proximal small bowel (PSB), plasma
[6] = Trt C, distal small bowel (DSB)
[7] = human, plasma, Trt B, proximal small bowel (PSB)
[8] = human, plasma, Trt C, distal small bowel (DSB)
[9] = human, plasma, other: Enterion capsule, delivered to the colon, Trt D, colon, plasma

For CC(C)(N)Cc1ccccc1 [Phentermine hydrochloride, 1,1 -Dimethyl-2-phenethylamine hydrochloride], the solubility ([1]; in chloroform) is listed as “slightly soluble”, the solubility ([1]; in ether) is listed as “insoluble” and the solubility ([1]; in water and lower alcohols) is listed as “soluble”.

In the case of CC1(C)O[C@@H]2[C@@H](CO[C@@]3(COS(N)(=O)=O)OC(C)(C)O[C@@H]23)O1 [Topiramate, topiramate], the “metabolized in the liver” value ([2]; P-450 microsomal enzyme system) is listed as 15%, the “time to peak blood levels” value ([2]; following a 400 mg oral dose) is listed as “about 2 hours” and the Plasma protein binding ([2]; in vivo) is listed as “approximately 15%”. For the same compound, the “excreted unchanged in the urine” value ([2]; in vivo) was “about 85%”, the bioavailability ([2]; oral administration) was ~100% and the “Relative Bioavailability (%) Based on AUCinf” value [3, 4] was 120.88 ± 20.20 %. For the same compound, the Lambda [3, 4] was 0.02 ± 0.01˜ h^−1, the tmax [3, 4] was 2.08 ± 1.08 h and the “Relative Bioavailability (%) Based on AUClast” value [3, 4] was 113.06 ± 19.46 %. For the same compound, the AUCinf [3, 5] was 192140.44 ± 33798.87˜ ng/mL · h, the Cmax [3, 5] was 5255.66 ± 1870.32 ng/mL and the “Relative Bioavailability (%) Based on AUCinf” value [3, 6] was 120.99 ± 25.31$ %. For the same compound, the Lambda [3, 6] was 0.03 ± 0.01 h⁻¹, the tmax [3, 6] was 3.64 ± 4.20 h and the “Relative Bioavailability (%) Based on AUClast” value [3, 6] was 125.69 ± 27.18˜ %. The AUCinf ([3]; Trt C, distal small bowel (DSB), plasma) was 193203.21 ± 57012.26 ng·h/mL, the “Relative Bioavailability (%) Based on AUCinf” value ([3]; Trt D, colon) was 111.85 ± 19.41^ % and the Lambda ([3]; Trt D, colon) was 0.03 ± 0.01* h^−1. The tmax ([3]; Trt D, colon) was 11.85 ± 7.44 h, the “Relative Bioavailability (%) Based on AUClast” value ([3]; Trt D, colon) was 107.14 ± 22.73˜ % and the AUCinf ([3]; Trt D, colon, plasma) was 181462.53 ± 46104.28 ng·h/mL. For the same compound, the Cmax ([3]; Trt D, colon, plasma) was 3878.07 ± 1267.71 ng/mL, the enhanced bioavailability ([3]; administered in the small or large intestine as compared to oral immediate release tablets) was “approximately 20%” and the Cmax ([3]; human, plasma, Trt B, proximal small bowel (PSB), plasma, read-out: Cmax) was 5260 ± 1870 ng/mL. The tmax ([3]; human, plasma, Trt B, proximal small bowel (PSB), read-out: tmax) was 2.1 ± 1.1 h, the half-life [3, 7] was 32.7 ± 9.7 h and the AUC(0-inf) [3, 7] was 192 ± 33.8 µg·h/mL. It also gave an AUC(0-t) [3, 7] of 150 ± 37.9 µg·h/mL, a Cmax ([3]; human, plasma, Trt C, distal small bowel (DSB), plasma, read-out: Cmax) of 4970 ± 1200 ng/mL and a tmax ([3]; human, plasma, Trt C, distal small bowel (DSB), read-out: tmax) of 3.6 ± 4.2 h. The half-life [3, 8] was 24.5 ± 6.18 h, the AUC(0-inf) [3, 8] was 193 ± 57 µg·h/mL and the AUC(0-t) [3, 8] was 160 ± 38.5 µg·h/mL. For the same compound, the AUC(0-inf) [3, 9] was 181 ± 46.1 µg·h/mL, the AUC(0-t) [3, 9] was 140 ± 40.7 µg·h/mL and the Cmax ([3]; human, plasma, other: Enterion capsule, delivered to the colon, Trt D, colon, plasma, read-out: Cmax) was 3880 ± 1270 ng/mL. For the same compound, the tmax ([3]; human, plasma, other: Enterion capsule, delivered to the colon, Trt D, colon, read-out: tmax) was 11.8 ± 7.4 h and the half-life ([3]; human, plasma, other: Enterion capsule, delivered to the colon, Trt D, colon) was 24.9 ± 5.2 h.

— patent US20060121112A1, “Topiramate pharmaceutical composition” (Elan Corporation, plc, priority 2004, published 2006)
